# According to patent US20240002429A1, “PRODRUG OF 5a-HYDROXY-6ß-[2-(1H-IMIDAZOL-4-YL)ETHYLAMINO]CHOLESTAN-3ß-OL AND PHARMACEUTICAL COMPOSITIONS COMPRISING SAME FOR USE IN THE TREATMENT OF CANCER” (priority 2020, published 2024):
# Legend:
# [1] = system: 4T1 cells; assay: Cytotoxicity on 4T1 cells, MTT; type: cell-based, murine; conditions: Mus musculus
# Experimental: (§1) The cellular viability tests were carried out on murine mammary tumor 4T1 cells characterized as negative triples (HER2−, ER−, PR−).
# (§2) For this experiment, a cell culture medium was prepared. The culture medium consists of Dulbecco's Modified Eagle Medium (DMEM, marketed by Westburg under the reference LO BE12-604F), comprising 4.5 g/L glucose with L-glutamine, to which 10% of fetal calf serum (FCS) and 50 U/mL of penicillin/streptomycin are added. The 4T1 cells are introduced into this culture medium.
# (§3) 96-well plates were seeded with 2000 4T1 cells per well. After 72 hours (h) of culture in normal conditions, i.e. in an incubator at a temperature of 37° C. at 5% CO2, the 4T1 cells are treated for 48 h with DX101, DX107, DX113, DX117, DX119, DX121 or DX131 at 100 nM, 1 μM, 2.5 μM and 10 μM. A control condition (CTL) is also carried out in parallel using the protocol described above but without treatment with the molecules DX101, DX107, DX113, DX117, DX119, DX121, DX131 or DX133.
# (§4) Cellular viability is measured by three different methods. For the first method, MTT labeling is carried out at 48 hours. This test is based on the use of the tetrazolium salt MTT (3-(4,5-dimethylthiazol-2-yl)-2,5-diphenyltetrazolium bromide). The tetrazolium is reduced by mitochondrial succinate dehydrogenase of active living cells, to formazan, a precipitate of a violet color. The quantity of precipitate formed is proportional to the quantity of living cells but also to the metabolic activity of each cell. […] After 48 hours, the medium is aspirated, and the cells are incubated with MTT (0.5 mg/ml in culture medium) for about 3 hours. The MTT solution is aspirated and the violet crystals are dissolved in dimethylsulfoxide (DMSO). The OD (optical density) is measured at 550 nm. The percentage viability is then determined in each well relative to the CTL and the IC50 (concentration for which there are still 50% of living cells) is determined for each molecule with Prism software using the nonlinear regression straight line (log(inhibitor) vs. Response).
# [2] = system: 4T1 cells; assay: Cytotoxicity on 4T1 cells, LDH; type: cell-based, murine; conditions: Mus musculus
# Experimental: as §1, §2, §3
# (§5) For the second method, the percentage viability is determined using assay of the activity of the enzyme LDH (lactate dehydrogenase) in the cellular supernatants using the kit non radioactive cytotoxicity assay kit (Promega). LDH is an enzyme released in the supernatant of dead cells. The higher the LDH activity in the supernatant, the greater is the cell death. In this enzyme test, the LDH released converts a violet tetrazolium salt to formazan, of red color, absorbing at 490 nm. The intensity of the red color is proportional to the number of dead cells. After 48 h of treatment, the supernatants are transferred to a new 96-well plate and are incubated for 30 minutes in the presence of the substrate mix at room temperature. The reaction is stopped using the stop buffer and the absorbance is determined at 490 nm. The percentage cell death is determined here using a control 100% of maximum activity of LDH (carried out with untreated cells incubated in the presence of the lysis solution for 45 minutes at 37° C. just before adding the substrate mix), and the cellular viability in each well is then deduced from this percentage. IC50 is then determined as explained in the preceding paragraph.
# [3] = system: 4T1 cells; assay: Cytotoxicity on 4T1 cells, CellTox Green Cytotoxicity Assay; type: cell-based, murine; conditions: Mus musculus
# Experimental: as §1, §2, §3
# For the third method, the percentage viability is determined using the kit CellTox Green Cytotoxicity Assay (Promega). This assay measures cell death via a change in membrane integrity. […] As a result, the higher the fluorescence in the wells, the greater is the cell death. After 48 h of treatment, the cells are incubated for a minimum of 15 minutes in the presence of the Celltox green reagent at room temperature and the fluorescence is read at […]. The percentage cell death is determined using the control 100% of cell death (carried out for untreated cells incubated in the presence of the lysis solution for 30 minutes at 37° C. before adding the Celltox green reagent), and the cellular viability in each well is then deduced from this percentage. IC50 is then determined as explained above.
# [4] = target: T1, cholesterol epoxide hydrolase (ChEH) (Homo sapiens, UniProt Q15125); assay: Activity of cholesterol epoxide hydrolase (ChEH) in MCF-7 cells, [14C]5,6α-EC metabolization by TLC; type: cell-based; conditions: MCF-7, 1 μM, 24 h, [14C]5,6α-EC 0.6 μM
# T1 construct: endogenous in cells; host or cells: MCF-7
# Source text: The compounds 5,6α-epoxycholesterol (5,6α-EC) and 5,6β-epoxycholesterol (5,6β-EC) are oxysterols involved in the anticancer pharmacology of tamoxifen, a widely used antitumor drug. They are both metabolized in cholestan-3β,5α,6β-triol (CT) by the enzyme cholesterol-5,6-epoxide hydrolase (ChEH), and CT is metabolized by the enzyme HSD11B2 (11β-hydroxysteroid dehydrogenase 2) to 6-oxo-cholestan-3β,5α-diol (OCDO), an oncosterone tumor promoter.
# MCF-7 cells are in a cell culture medium identical to example 20 and are seeded in 6-well plates at 150000 cells per well with 3 wells per treatment condition. 24 h after seeding, the MCF-7 cells are treated with [^14C]5,6α-EC (stock solution 1000×: 0.6 mM; 20 μCi/μmol; final concentration 0.6 μM) alone or in combination with tamoxifen (tam). Tamoxifen is used as positive control of the study compounds. The treatment with the compound according to the invention is carried out at a concentration of 1 μM.
# After 24 hours of treatment, the media are collected and lipid extracts are prepared from the cell pellets by extraction with 100 μL of chloroform, 400 μL of methanol and 300 μL of water. The lipid extracts are analyzed by thin-layer chromatography (TLC) using ethyl acetate (EtOAc) as eluent. The analysis is carried out using a plate reader and then by autoradiography.
# [5] = system: BT-474 human mammary tumor cells; assay: Cytotoxicity on BT-474 cells, MTT; type: cell-based; conditions: for Mean LogIC50 (±SEM): log of IC50 in μM; for IC50: Homo sapiens
# Experimental: as §4
# (§6) The cellular viability tests were also carried out on BT-474 human mammary tumor cells (characterized as being positive triples HER2+, ER+, PR+). The BT-474 cells are in a cell culture medium identical to the preceding example and are seeded in 24-well plates at 70 000 cells per well, for determination of cellular viability using trypan blue, or in 96-well plates at 13 000 cells per well for determination of cellular viability using the MTT or LDH assay. After 96 hours (h) of culture in normal conditions, i.e. in an incubator at a temperature of 37° C. at 5% CO2, the BT-474 cells are treated for 48 h with DX101, DX107, and DX113 at 100 nM, 1 μM, 2.5 μM and 10 μM. A control is also carried out using the protocol described above but without treatment with the molecules DX101, DX107, DX113, DX117, DX119, DX121 or DX131.
# (§7) After trypsin digestion for 10 minutes at 37° C., cell survival was quantified, also by a trypan blue assay with automatic counting with the Biorad TC20 equipment (TC20™ Automated Cell Counter). The trypan blue assay is based on the cell membrane integrity, which is broken in the dead cells. Trypan blue stains the dead cells blue. The Biorad TC20 cell counter counts the proportion of blue cells and non-blue cells, relative to the cell percentages. The percentage viability is then determined in each well relative to the untreated cells and the IC50 is determined as explained in the preceding example. The percentage viability of the BT-474 cells was determined using the MTT and LDH assay, carried out as described in the preceding example.
# [6] = system: BT-474 human mammary tumor cells; assay: Cytotoxicity on BT-474 cells, LDH; type: cell-based; conditions: for Mean LogIC50 (±SEM): log of IC50 in μM; for IC50: Homo sapiens
# Experimental: as §5, §6, §7
# [7] = Pharmacokinetic study of DX117 (LC/MS in plasma); type: in vivo; conditions: rat, 50 mg/kg, administered compound assayed
# Source text: (§8) The following study is a determination by LC/MS in plasma of the various molecules over 3 days (11 measurement points at the end). The graphs are always presented in comparison with DX101, which is the reference. […]
# [8] = system: BT-474 human mammary tumor cells; assay: Cytotoxicity on BT-474 cells, trypan blue; type: cell-based; conditions: BT-474, trypan blue, 48 h
# Experimental: as §6, §7
# [9] = Pharmacokinetic study of DX121 (LC/MS in plasma); type: in vivo; conditions: rat, oral 50 mg/kg, administered compound assayed
# Source text: as §8
# [10] = 4T1, MTT, 48 h, log of IC50 in μM, read-out: Mean LogIC50 (±SEM) (converted)
# [11] = 4T1, LDH, 48 h, log of IC50 in μM, read-out: Mean LogIC50 (±SEM) (converted)
# [12] = 4T1, Green Cytotoxicity Assay, 48 h, log of IC50 in μM, read-out: Mean LogIC50 (±SEM) (converted)
# [13] = 4T1, Green Cytotoxicity Assay, 48 h, read-out: IC50
# [14] = 4T1, 48 h, read-out: Mean LogIC50 (±SEM) (converted)
# [15] = BT-474, MTT, 48 h, read-out: IC50
# [16] = BT-474, LDH, 48 h, read-out: IC50
# T1 sequence (Q15125 whole entry): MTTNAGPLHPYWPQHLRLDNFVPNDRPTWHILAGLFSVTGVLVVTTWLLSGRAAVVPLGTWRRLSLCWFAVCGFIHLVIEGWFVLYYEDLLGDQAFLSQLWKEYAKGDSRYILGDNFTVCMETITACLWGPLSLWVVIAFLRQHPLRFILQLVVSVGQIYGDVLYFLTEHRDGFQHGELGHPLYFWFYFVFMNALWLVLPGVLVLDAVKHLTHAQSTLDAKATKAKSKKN
Compound,"IC50 [1, 10] [µM]","IC50 ([1]; 4T1, MTT, 48 h, read-out: IC50) [µM]","IC50 [2, 11] [µM]","IC50 ([2]; 4T1, LDH, 48 h, read-out: IC50) [µM]","IC50 [3, 12] [µM]","IC50 [3, 13] [µM]","Mean LogIC50 (±SEM) ([5]; BT-474, MTT, 48 h)","Mean LogIC50 (±SEM) ([6]; BT-474, LDH, 48 h)","IC50 [5, 15] [µM]","IC50 [6, 16] [µM]",further results
"CCC(=O)NC(Cc1ccc(O)cc1)C(=O)O[C@H]1CC[C@]2(C)C3CC[C@@]4(C)C(CC[C@@H]4C(C)CCCC(C)C)C3C[C@@H](NCCc3c[nH]cn3)[C@@]2(O)C1 (stereo partly drawn) [DX133, 5α-hydroxy-6β-[2-(1H-imidazol-4-yl)ethylamino]cholestan-3β-yl propionyltyrosine]",12.3,12.2,4.17,4.17,3.55,3.56,,,,,
CC/C(=C(\c1ccccc1)c1ccc(OCCN(C)C)cc1)c1ccccc1 [tamoxifen],,,,,,,,,,,inhibition of ChEH activity [4]: total inhibition
"CCN(CC)C(=O)O[C@H]1CC[C@]2(C)C3CC[C@@]4(C)C(CC[C@@H]4C(C)CCCC(C)C)C3C[C@@H](NCCc3c[nH]cn3)[C@@]2(O)C1 (stereo partly drawn) [DX131, 5α-hydroxy-6β-[2-(1H-imidazol-4-yl)ethylamino]cholestan-3β-yl-diethyl carbamate]",,,,,,,1.08 ± 0.08,1.45 ± 0.08,,,"IC50 ([1]; 4T1, 48 h): 25.7 µM; IC50 [1, 14]: 25.7 µM; IC50 ([2]; 4T1, 48 h): 6.76 µM; IC50 [2, 14]: 6.76 µM; IC50 ([3]; 4T1, 48 h): 1.81 µM; IC50 [3, 14]: 1.7 µM; IC50 ([5]; BT-474, 48 h): 12 µM; IC50 ([6]; BT-474, 48 h): 28.2 µM"
"CCCCOC(=O)O[C@H]1CC[C@]2(C)[C@H]3CC[C@]4(C)[C@@H]([C@H](C)CCCC(C)C)CC[C@H]4[C@@H]3C[C@@H](NCCc3c[nH]cn3)[C@@]2(O)C1 [DX119, 5α-hydroxy-6β-[2-(1H-imidazol-4-yl)ethylamino]cholestan-3β-yl butyl carbonate]",9.33,9.23,3.09,3.12,3.63,3.67,1.33 ± 0.06,1.41 ± 0.01,14.5,25.4,
"CC(C)CCCC(C)[C@H]1CCC2C3C[C@@H](NCCc4c[nH]cn4)[C@@]4(O)C[C@@H](OC(=O)NCCc5c[nH]cn5)CC[C@]4(C)C3CC[C@@]21C (stereo partly drawn) [DX117, 5α-hydroxy-6β-[2-(1H-imidazol-4-yl)ethylamino]-cholestan-3β-yl-(2-(1H-imidazol-4-yl)ethyl)carbamate]",11,10.9,8.32,8.31,9.55,9.54,0.79 ± 0.06,0.72 ± 0.18,6.17,5.25,Concentration max [7]: 76.67 nM; Area under curve ([7]; 0-72 h): 2123
"CCCCCC(=O)O[C@H]1CC[C@]2(C)[C@H]3CC[C@]4(C)[C@@H]([C@H](C)CCCC(C)C)CC[C@H]4[C@@H]3C[C@@H](NCCc3cnc[nH]3)[C@@]2(O)C1 [DX113, 5α-hydroxy-6β-[2-(1H-imidazol-4-yl)-ethylamino]-cholestan-3β-yl hexanoate]",18.2,18.2,5.25,5.28,11,10.9,1.33 ± 0.07,1.38 ± 0.07,21.4,23.7,Mean LogIC50 (±SEM) ([8]; log of IC50 in μM): 1.09 ± 0.15; IC50 ([8]; Homo sapiens): 12.3 µM
"CCOC(=O)O[C@H]1CC[C@]2(C)[C@H]3CC[C@]4(C)[C@@H]([C@H](C)CCCC(C)C)CC[C@H]4[C@@H]3C[C@@H](NCCc3c[nH]cn3)[C@@]2(O)C1 [DX121, 5α-hydroxy-6β-[2-(1H-imidazol-4-yl)ethylamino]cholestan-3β-yl ethyl carbonate]",11,10.8,4.68,4.69,6.61,6.59,1.05 ± 0.17,1.47 ± 0.40,11.2,11.8,Concentration max [9]: 96.33 nM; Area under curve ([9]; 0-72 h): 1000
